Compound in experiment [1]: T1, CO[C@H]1C[C@@H]2CC[C@@H](C)[C@@](O)(O2)C(=O)C(=O)N2CCCC[C@H]2C(=O)O[C@H]([C@H](C)C[C@@H]2CC[C@@H](OCCO)[C@H](OC)C2)CC(=O)[C@H](C)/C=C(\C)[C@@H](O)[C@@H](OC)C(=O)[C@H](C)C[C@H](C)/C=C/C=C/C=C/1C [EVEROLIMUS]
As to the kind of experiment: surviving fraction relative to DMSO-only wells; higher = less growth inhibition. The conditions noted are these: exposure time: 5 days. The method in brief: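 In 384-well plates, 250–500 log-phase tumour cells per well were given 24 hours before five days of continuous exposure to inhibitors at 0.5, 1, 5, 10, 50, 100, 500 and 1000 nM. Surviving fraction is luminescence from CellTiter-Glo, normalised to the median of wells containing DMSO alone. Reading took place after 10 minutes at room temperature.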

Compound in experiment [2]: C#Cc1cccc(Nc2ncnc3cc(OCCOC)c(OCCOC)cc23)c1 [ERLOTINIB]
As to the kind of experiment: area under dose-response curve of surviving fraction (unscaled, Aref=0) (surviving fraction x log10(nM)); higher = more resistant. The conditions noted are these: exposure time: 5 days; dose range 0.5-1000 nM. Put shortly:
(§1)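 Three screens per tumour cell line were run in 384-well plates at eight inhibitor concentrations from 0.5 to 1000 nM over five days. Surviving fractions, from CellTiter-Glo luminescence normalised to DMSO-only wells, were fitted with 3-parameter logistic curves in the drc R package. The reported area under the curve is the unscaled activity area. It spans log10 dose, and Aref is 0.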

Compound in experiment [3]: CCC1=C[C@@H]2CN(C1)Cc1c([nH]c3ccccc13)[C@@](C(=O)OC)(c1cc3c(cc1OC)N(C)[C@H]1[C@@](O)(C(=O)OC)[C@H](OC(C)=O)[C@]4(CC)C=CCN5CC[C@]31[C@@H]54)C2 [VINORELBINE]
The description is as above. The conditions noted are these: exposure time: 5 days; dose range 0.5-1000 nM. The method in brief: as §1

Compound in experiment [4]: CN(Cc1cnc2nc(N)nc(N)c2n1)c1ccc(C(=O)N[C@@H](CCC(=O)O)C(=O)O)cc1 [METHOTREXATE]
Described as above. The conditions noted are these: exposure time: 5 days; dose range 0.5-1000 nM. Put shortly:
as §1

Compound in experiment [5]: T1, EVEROLIMUS
Described as above. The conditions noted are these: exposure time: 5 days; dose range 0.5-1000 nM. The method in brief:
as §1

Compound in experiment [6]: COc1cc(CCc2cc(NC(=O)c3ccc(N4CC(C)NC(C)C4)cc3)n[nH]2)cc(OC)c1 [AZD4547]
Described as above. The conditions noted are these: exposure time: 5 days; dose range 0.5-1000 nM. Put shortly:
as §1

Compound in experiment [7]: COc1cc([C@@H]2c3cc4c(cc3[C@@H](O[C@@H]3O[C@@H]5CO[C@@H](C)O[C@H]5[C@H](O)[C@H]3O)[C@H]3COC(=O)[C@H]23)OCO4)cc(OC)c1O [ETOPOSIDE]
Described as above. Conditions: exposure time: 5 days; dose range 0.5-1000 nM. Put shortly:
as §1

Compound in experiment [8]: Cc1nc(Nc2n[nH]c3c2CN(C(=O)N[C@H](CN(C)C)c2ccccc2)C3(C)C)c2sccc2n1
Described as above. The conditions noted are these: exposure time: 5 days; dose range 0.5-1000 nM. The method in brief:
as §1

Compound in experiment [9]: NC1(c2ccc(-c3nc4ccn5c(=O)[nH]nc5c4cc3-c3ccccc3)cc2)CCC1 [MK2206]
Described as above. Conditions: exposure time: 5 days; dose range 0.5-1000 nM. The method in brief: as §1

Compound in experiment [10]: Nc1ccn([C@@H]2O[C@H](CO)[C@@H](O)C2(F)F)c(=O)n1 [GEMCITABINE]
The experiment is described as above. The conditions noted are these: exposure time: 5 days; dose range 0.5-1000 nM. The method in brief:
as §1

Compound in experiment [11]: O=C(NOCC1CC1)c1ccc(F)c(F)c1Nc1ccc(I)cc1Cl
The description is as above. Conditions: exposure time: 5 days; dose range 0.5-1000 nM. Put shortly:
as §1

Compound in experiment [12]: CCCS(=O)(=O)Nc1ccc(F)c(C(=O)c2c[nH]c3ncc(Cl)cc23)c1F [PLX-4720]
Described as above. Conditions: exposure time: 5 days; dose range 0.5-1000 nM. Put shortly: as §1

± gives the standard deviation of the averaged measurements.

As to C33A CERVIX, the surviving fraction in [1] (0.5 nM) worked out at 0.757 ± 0.058; in [1] (1 nM) it was 0.649 ± 0.06; in experiment [1] (5 nM) it was 0.469 ± 0.017; in [1] (10 nM) it was 0.432 ± 0.0057; in experiment [1] (50 nM) it was 0.355 ± 0.027; in [1] (100 nM) it was 0.369 ± 0.028. For the same test system, the surviving fraction in [1] (500 nM) came out at 0.303 ± 0.051; in experiment [1] (1000 nM) it was 0.277 ± 0.015. Besides, the “area under dose-response curve” value in experiment [2] stood at 3.19; in [3], 1.62; in experiment [4] it was 2.33; in [5], 1.43; in [6] it was 3.03; in experiment [7], 2.61. In addition, the “area under dose-response curve” value is 0.95 in experiment [8], 3.12 in experiment [9], 1.15 in experiment [10] and 2.3 in experiment [11].
Consider CAL72 BONE, for which the surviving fraction came out at 0.967 ± 0.17 in experiment [1] (0.5 nM); 0.87 ± 0.16 in experiment [1] (1 nM); 0.707 ± 0.12 in [1] (5 nM); 0.671 ± 0.1 in experiment [1] (10 nM); 0.61 ± 0.056 in [1] (50 nM); 0.641 ± 0.057 in experiment [1] (100 nM). In addition, the surviving fraction in [1] (500 nM) amounted to 0.576 ± 0.028; in [1] (1000 nM) it was 0.608 ± 0.026. In addition, the “area under dose-response curve” value came out at 3.5 in experiment [2]; 2.14 in experiment [3]; 3.44 in experiment [12]; 2.39 in [4]; 2.27 in experiment [5]; 1.94 in experiment [6]. The “area under dose-response curve” value in experiment [7] was found to be 3.1; in [8] it was 1.77; in experiment [9] it was 3.66; in experiment [10], 1.4; in experiment [11] it was 3.52.
With G292 BONE, the surviving fraction in experiment [1] (0.5 nM) came out at 0.803 ± 0.0075; in experiment [1] (1 nM) it was 0.721 ± 0.038; in [1] (5 nM), 0.518 ± 0.015; in experiment [1] (10 nM), 0.476 ± 0.024; in experiment [1] (50 nM), 0.433 ± 0.0098; in [1] (100 nM), 0.436 ± 0.014. Besides, the surviving fraction in experiment [1] (500 nM) came to 0.408 ± 0.015; in experiment [1] (1000 nM), 0.405 ± 0.01. For the same test system, the “area under dose-response curve” value was found to be 3.44 in [2]; 1.48 in experiment [3]; 3.19 in experiment [12]; 3.41 in experiment [4]; 1.68 in [5]; 1.58 in experiment [6]. For the same test system, the “area under dose-response curve” value in [7] came out at 2.76; in [8] it was 1.22; in experiment [9], 2.96; in [10] it was 1.39; in experiment [11], 3.17.
Take HCC1395 BREAST: the surviving fraction in [1] (0.5 nM) came out at 1.18 ± 0.041; in experiment [1] (1 nM) it was 1.08 ± 0.03; in experiment [1] (5 nM), 1.19 ± 0.025; in experiment [1] (10 nM) it was 0.998 ± 0.05; in [1] (50 nM), 1.02 ± 0.099; in [1] (100 nM) it was 1 ± 0.041. The surviving fraction turned out to be 0.974 ± 0.026 in experiment [1] (500 nM) and 0.951 ± 0.056 in [1] (1000 nM). The “area under dose-response curve” value in experiment [2] turned out to be 3.97; in experiment [3], 2.74; in experiment [12], 2.7; in [4] it was 3.78; in experiment [5], 3.36; in [6], 2.6. Besides, the “area under dose-response curve” value in [7] was 3.25; in experiment [8] it was 3.37; in experiment [9], 3.23; in [11], 3.01.
As to HUO3N1 BONE, the surviving fraction in experiment [1] (0.5 nM) amounted to 0.751 ± 0.021; in experiment [1] (1 nM), 0.688 ± 0.011; in [1] (5 nM), 0.655 ± 0.013; in experiment [1] (10 nM), 0.632 ± 0.016; in experiment [1] (50 nM), 0.624 ± 0.043; in experiment [1] (100 nM), 0.617 ± 0.042. The surviving fraction in [1] (500 nM) is 0.581 ± 0.031; in experiment [1] (1000 nM), 0.607 ± 0.023. The “area under dose-response curve” value stood at 3.54 in experiment [2]; 2 in experiment [3]; 3.12 in [12]; 2.8 in experiment [4]; 2.1 in [5]; 2.9 in experiment [6]. The “area under dose-response curve” value was 2.97 in experiment [7]; 2.38 in experiment [8]; 2.94 in experiment [9]; 1.51 in experiment [10]; 3.35 in experiment [11].
LNCAP PROSTATE: the surviving fraction is 0.679 ± 0.048 in experiment [1] (0.5 nM); 0.544 ± 0.012 in experiment [1] (1 nM); 0.409 ± 0.033 in [1] (5 nM); 0.404 ± 0.043 in experiment [1] (10 nM); 0.285 ± 0.032 in experiment [1] (50 nM); 0.288 ± 0.0055 in experiment [1] (100 nM). Moreover, the surviving fraction in experiment [1] (500 nM) turned out to be 0.219 ± 0.0032; in experiment [1] (1000 nM), 0.222 ± 0.0092. In addition, the “area under dose-response curve” value in [2] came out at 3.2; in experiment [3], 1.23; in experiment [12], 3.17; in [4], 2.36; in experiment [5] it was 1.21; in experiment [6], 2.84. In addition, the “area under dose-response curve” value in experiment [7] turned out to be 2.68; in experiment [8], 0.726; in experiment [9], 2.02; in [10], 1.22; in [11] it was 2.93.
Consider SCC003 HEADNECK, for which the surviving fraction stood at 1.07 ± 0.043 in experiment [1] (0.5 nM); 1 ± 0.04 in experiment [1] (1 nM); 1.04 ± 0.035 in experiment [1] (5 nM); 0.961 ± 0.036 in experiment [1] (10 nM); 0.953 ± 0.037 in experiment [1] (50 nM); 0.94 ± 0.094 in experiment [1] (100 nM). Besides, the results for the surviving fraction in [1] (500 nM) and in experiment [1] (1000 nM) were 0.923 ± 0.066 and 0.92 ± 0.061, respectively. The “area under dose-response curve” value in experiment [2] was found to be 3.14; in experiment [3] it was 1.98; in experiment [12], 2.97; in experiment [4], 2.41; in experiment [8], 1.57; in [10], 1.57. In experiment [11], the “area under dose-response curve” value is 2.83.
